# Measured values taken from patent publication US5221606A, “Reagent and kit for enzyme assay comprising a substrate consonant with given enzyme to be assayed” (King's College London, priority 1987, dated 1993).
# Counter-ions that a name gives are not always drawn.
# Columns and labels:
# carboxyesterase = test: substrate test with carboxyesterase; assay type: biochemical
# Description: The serum samples were diluted by a factor of 10 prior to the assay. The substrate solution and the diluted sera were then preincubated at 37° C. in a water bath. Aliquots (0.75 ml) of the substrate solution were then pipetted into small plastic tubes (2 ml capacity), and 0.05 ml samples of the sera were added to each of the substrate aliquots and shaken vigorously to ensure adequate mixing. A blank was run by substituting water (0.05 ml) for the serum. The reaction was stopped after 10 min by the addition of the stopping buffer (0.25 ml) [prepared by dissolving DABCO (22.4 g) in water (200 ml) and adjusting the pH to 10 by the addition of a little conc. hydrochloric acid. The resulting mixture was then made up to 1000 ml with acetone]. […] [formula] where t=time of incubation in hours
# Otherwise it was carried out in exactly the same ways as above
# [1] = solubility in water or aqueous buffer
# [2] = test system: N-acetyl-β-D-glucosaminidase (NAGase); test: substrate test with N-acetyl-β-D-glucosaminidase; assay type: biochemical
# Description: METHOD. The MIXTURE A is dissolved in 10 ml of distilled water to give SOLUTION A. The solution should be allowed to stand in a thermostatically controlled bath at 37° C., and then 0.75 ml of the solution is added to a series of suitable tubes of 2 ml capacity. To these tubes is added, with vigorous stirring, […] aliquots of the urines under examination, and a blank is prepared by adding 0.05 ml of distilled water rather than urine to one of the tubes. The tubes are then incubate for a set length of time (preferably 30 min), after which 0.25 ml of the STOPPING BUFFER is added to each tube and the absorption (A) at 505 nm is determined for each sample, and adjusted for the value of the blank.
# The enzyme activity of the enzyme in each sample is given by the expression using and εmax =42,000. [formula] where t=time of incubation in hours
# E. Coli β-galactosidase = E. Coli β-galactosidase (Escherichia coli, UniProt P00722); test: substrate test with β-galactosidase; assay type: biochemical
# Chain of E. Coli β-galactosidase (P00722 2-1024): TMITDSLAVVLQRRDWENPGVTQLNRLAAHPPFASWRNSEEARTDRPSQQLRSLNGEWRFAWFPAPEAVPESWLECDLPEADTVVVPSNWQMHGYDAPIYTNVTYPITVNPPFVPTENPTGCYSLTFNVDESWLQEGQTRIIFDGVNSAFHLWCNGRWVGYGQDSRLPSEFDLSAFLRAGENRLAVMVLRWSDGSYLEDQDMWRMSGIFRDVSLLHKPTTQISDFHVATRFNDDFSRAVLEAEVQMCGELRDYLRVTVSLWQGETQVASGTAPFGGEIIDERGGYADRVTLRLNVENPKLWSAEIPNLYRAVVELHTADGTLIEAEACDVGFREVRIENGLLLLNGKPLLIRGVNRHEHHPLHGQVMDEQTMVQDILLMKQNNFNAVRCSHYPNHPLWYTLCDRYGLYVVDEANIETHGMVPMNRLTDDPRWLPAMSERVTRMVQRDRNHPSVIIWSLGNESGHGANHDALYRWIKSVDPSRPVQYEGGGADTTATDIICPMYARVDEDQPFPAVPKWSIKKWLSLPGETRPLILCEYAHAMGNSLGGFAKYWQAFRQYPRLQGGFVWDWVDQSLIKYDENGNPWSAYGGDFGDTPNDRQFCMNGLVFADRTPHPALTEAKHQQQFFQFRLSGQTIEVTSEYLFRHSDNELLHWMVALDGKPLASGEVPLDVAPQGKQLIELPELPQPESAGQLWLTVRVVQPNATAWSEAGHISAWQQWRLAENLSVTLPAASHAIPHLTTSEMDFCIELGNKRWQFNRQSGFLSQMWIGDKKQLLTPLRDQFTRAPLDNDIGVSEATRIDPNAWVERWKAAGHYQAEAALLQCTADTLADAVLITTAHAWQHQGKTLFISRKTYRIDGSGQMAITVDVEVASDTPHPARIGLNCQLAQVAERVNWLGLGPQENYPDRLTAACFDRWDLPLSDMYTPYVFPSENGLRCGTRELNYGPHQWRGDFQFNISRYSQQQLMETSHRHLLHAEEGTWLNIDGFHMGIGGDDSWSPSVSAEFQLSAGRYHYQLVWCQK
# alkaline phosphatase = test: substrate test with alkaline phosphatase; assay type: biochemical
# stability on storage = assay type: physicochemical
# [3] = E. coli β-galactosidase, unit inferred
compound,measurement,setting,value
"COc1cc(C=C2SC(=S)N(c3ccc(S(=O)(=O)O)cc3)C2=O)cc(OC)c1OC(=O)c1ccccc1 [14e, Potassium 5-(4-benzoyloxy-3,5-dimethoxyphenylmethylene) -2-thioxothiazolidin-4-one-3-(phenyl-4-sulphonate)]",quality as substrate for / cleavage by carboxyesterase,carboxyesterase,hydrolysed by carboxyesterase
"CCC(=O)Oc1c(OC)cc(C=C2C(=O)NC(=S)NC2=O)cc1OC [28d, n=1, 4,6-dioxo-5-(4-propanoyloxy-3,5-dimethoxyphenylmethylene)-2-thioxo-1,3-diazacyclohexane]",solubility in water,[1]; water,not particularly good
same,quality as substrate for / cleavage by carboxyesterase,carboxyesterase,poor-to-moderate substrate
COc1cc(C=C2SC(=S)N(CC(=O)O)C2=O)cc(OC)c1O[C@@H]1O[C@H](CO)[C@@H](O)[C@H](O)[C@H]1NC(C)=O [11b],quality as substrate for NAGase,[2],fair substrate
same,solubility in water,[1]; water,soluble in water
"COc1cc(/C=C/c2ccc3ccccc3[n+]2C)ccc1O[C@@H]1O[C@H](CO)[C@H](O)[C@H](O)[C@H]1O [21c, 2-{2-[4-(β-D-Galactopyranosyloxy)-3-methoxyphenyl]-vinyl}-1-methylquinolinium iodide]",quality as substrate for E. Coli β-galactosidase,E. Coli β-galactosidase,excellent substrate
same,Km,E. Coli β-galactosidase; [3],~200 µM
same,% of vmax achieved,E. Coli β-galactosidase; at a concentration of 0.5 mM,90%
same,solubility in water,[1]; water,very good water solubility
COc1cc(/C=C/c2cc[n+](C)cc2)ccc1O[C@@H]1O[C@H](CO)[C@H](O)[C@H](O)[C@H]1O [19c],quality as substrate for E. Coli β-galactosidase,E. Coli β-galactosidase,substrate
same,solubility in water,[1]; water,fair solubility
"COc1cc(/C=C/c2sc3ccccc3[n+]2C)ccc1O[C@@H]1O[C@H](CO)[C@H](O)[C@H](O)[C@H]1O [26c, 2-{2-[4-(β-D-Galactopyranosyloxy)-3-methoxyphenyl]-vinyl}-3-methylbenzothiazolium tosylate]",concentration above which substrate inhibition starts to show,E. Coli β-galactosidase,above 0.7 mM
same,pH optimum,E. Coli β-galactosidase,6.5
same,quality as substrate for E. Coli β-galactosidase,E. Coli β-galactosidase,reacted to give an intense violet-red solution
same,% of vmax achieved,E. Coli β-galactosidase; at a concentration of 1 mM,95%
same,Km,E. Coli β-galactosidase; β-D-galactosidase from E. Coli,230 µM
same,solubility in water,[1]; water,very soluble in water
"COc1cc(C=C2SC(=S)N(C)C2=O)ccc1OP(=O)(O)O [9F, 5-(4-Phosphoroyloxy-3-methoxyphenylmethylene)-2-thioxo-3-methylthiazolidine-4-one]",solubility in water,[1]; water,very soluble in water
same,quality as substrate for / hydrolysis by alkaline phosphatase,alkaline phosphatase,hydrolysed readily
"COc1cc(/C=C/c2cc[n+](C)c3ccccc23)ccc1O[C@@H]1O[C@H](CO)[C@H](O)[C@H](O)[C@H]1O [23c, 4-{2-[4-(β-D-Galactopyranosyloxy)-3-methoxyphenyl]-vinyl}-1-methylquinolinium iodide]",quality as substrate for E. Coli β-galactosidase,E. Coli β-galactosidase,excellent substrate
same,Km,E. Coli β-galactosidase; [3],62 µM
same,% of vmax achieved,E. Coli β-galactosidase; at a concentration of 0.5 mM,95%
same,substrate inhibition,E. Coli β-galactosidase; at concentrations higher than 0.5 mM,slight substrate inhibition
same,solubility in water,[1]; water,good water solubility
"COc1cc(N2C(=O)C(=Cc3cc(OC)c(OP(=O)(O)O)c(OC)c3)SC2=S)cc(OC)c1OC [15f, 2-Thioxo-3-(3,4,5-trimethoxyphenyl)-5-(3,5-dimethoxy-4-phosphoroyloxyphenylmethylene)-thiazolidin-4-one]",solubility in alkaline buffers,[1]; alkaline buffers (pH 8 etc.),moderately soluble
same,quality as substrate for / hydrolysis by alkaline phosphatase,alkaline phosphatase,hydrolysed by alkaline phosphatase
"COc1cc(/C=C/c2ccc3ccccc3[n+]2C)cc(OC)c1OP(=O)(O)O [22f, 2-[2-(4-phosphoroyloxy-3,5-dimethoxyphenyl)-vinyl]-1-methylquinolinium iodide]",solubility in water,[1]; water,very soluble in water
same,quality as substrate for / hydrolysis by alkaline phosphatase,alkaline phosphatase,good substrate
same,% of vmax achieved,alkaline phosphatase; at a concentration of 0.5 mM,42%
same,Km,alkaline phosphatase; phosphatase,680 µM
"COc1cc(C=C2SC(=S)N(C)C2=O)cc(OC)c1OP(=O)(O)O [16f, 5-(4-Phosphoroyloxy-3,5-dimethoxyphenylmethylene)-2-thioxo-3-methylthiazolidine-4-one]",Km,alkaline phosphatase; phosphatase,330 µM
"CCC[n+]1ccc(/C=C/c2cc(OC)c(OP(=O)([O-])O)c(OC)c2)c2ccccc21 [25f, 4-[2-(4-Phosphoroyloxy-3,5-dimethoxyphenyl)-vinyl]-1-propylquinolinium]",solubility in water,[1]; water,water soluble
same,quality as substrate for / hydrolysis by alkaline phosphatase,alkaline phosphatase,excellent substrate
same,Km,"alkaline phosphatase; alkaline phosphatase, unit inferred",176 µM
same,% of vmax achieved,alkaline phosphatase; at a concentration of 1 mM,86%
"COc1cc(C=C2C(=O)N(c3ccc(S(=O)(=O)O)cc3)N=C2C)cc(OC)c1OC(=O)c1ccccc1 [29e, Potassium 1-(benzene-4-sulfonate)-4-(4-Benzolyloxy-3,5-dimethoxyphenylmethylene)-3-methyl-5-pyrazalone]",quality as substrate for / cleavage by carboxyesterase,carboxyesterase,substrate for carboxyesterase
COc1cc(C=C2SC(=S)N(CC(=O)O)C2=O)cc(OC)c1OC(=O)c1ccccc1 [11e],quality as substrate for / cleavage by carboxyesterase,carboxyesterase,excellent substrate
2-[2-(4-Benzoyloxy-3-methoxyphenyl)-vinyl-1-methylquinolinium iodide [21e],quality as substrate for / cleavage by carboxyesterase,carboxyesterase,readily cleaved
"COc1cc(/C=C/c2ccc3ccccc3[n+]2C)cc(OC)c1O[C@@H]1O[C@H](CO)[C@H](O)[C@H](O)[C@H]1O [22c, 2-{2-[4-(β-D-Galactopyranosyloxy)-3,5-dimethoxyphenyl]-vinyl}-1-methylquinolinium iodide]",quality as substrate for E. Coli β-galactosidase,E. Coli β-galactosidase,good a substrate
same,solubility in water,[1]; water,easily soluble in water
"COc1cc(/C=C/c2cc[n+](C)c3ccccc23)cc(OC)c1O[C@@H]1O[C@H](CO)[C@H](O)[C@H](O)[C@H]1O [24c, 4-{2-[4-(β-D-Galactopyranosyloxy)-3,5-dimethoxyphenyl]-vinyl}-1-methylquinolinium iodide]",quality as substrate for E. Coli β-galactosidase,E. Coli β-galactosidase,good a substrate
same,solubility in water,[1]; water,easily soluble in water
"COc1cc(C=CC=C2SC(=S)N(CC(=O)O)C2=O)ccc1OC(C)=O [compound 30, Piperidinium 5-[3-(4'-ethanoyloxy-3'-methoxyphenyl)-prop-2-enylidene]-2-thioxothiazolidin-4-one-3-ethanoate]",quality as substrate for / cleavage by carboxyesterase,carboxyesterase,hydrolysed
CCN1C(=O)C(=Cc2ccc(OP(=O)(O)O)c(OC)c2)C(=O)N(CC)C1=S [27f],solubility in water,[1]; water,good solubility
same,quality as substrate for / hydrolysis by alkaline phosphatase,alkaline phosphatase,cleaved by alkaline phosphatase
"CCC(=O)Oc1ccc(C=C2SC(=S)NC2=O)cc1OC [3d, n=1, 5-(4-propanoyloxy-3-methoxyphenylmethylene)-2-thioxothiazolidin-4-one]",solubility in water,[1]; water,slightly soluble in water
same,quality as substrate for / cleavage by carboxyesterase,carboxyesterase,cleaved by carboxyesterase
"CCC(=O)Oc1c(OC)cc(C=C2SC(=S)N(c3ccc(C(=O)O)cc3)C2=O)cc1OC [13d, n=1, 3-(4-carboxyphenyl)-5-(3,5-dimethoxy-4-propanoyloxyphenylmethylene)-2-thioxothiazolidin-4-one]",quality as substrate for / cleavage by carboxyesterase,carboxyesterase,reacted with carboxyesterase
"COc1cc(/C=C/c2ccc3ccccc3[n+]2C)ccc1OP(=O)(O)O [21f, 2-[2-(4-phosphoroyloxy-3-methoxyphenyl)-vinyl]-1-methylquinolinium iodide]",solubility in water,[1]; water,very soluble in water
same,stability in storage,stability on storage,rather unstable in storage
same,quality as substrate for / hydrolysis by alkaline phosphatase,alkaline phosphatase,reacted rapidly
"COc1cc(/C=C/c2ccc3ccccc3[n+]2C)ccc1O[C@@H]1O[C@H](CO)[C@@H](O)[C@H](O)[C@H]1NC(C)=O [21b, 2-{2-[4-(2-Acetamido-2-deoxy-β-D-glucopyranosyloxy)-3-methoxyphenyl]-vinyl}-1-methylquinolinium iodide]",quality as substrate for NAGase,[2],substrate
"COc1cc(/C=C/c2cc[n+](C)c3ccccc23)ccc1O[C@@H]1O[C@H](CO)[C@@H](O)[C@H](O)[C@H]1NC(C)=O [23b, 4-{2-[4-(2-acetamido-2-deoxy-β-D-glucopyranosyloxy)-3-methoxyphenyl]-vinyl}-1-methylquinolinium iodide]",quality as substrate for NAGase,[2],fair substrate
same,solubility in water,[1]; water,good water solubility
COc1cc(C=C2SC(=S)N(CC(=O)O)C2=O)ccc1O[C@@H]1O[C@H](CO)[C@@H](O)[C@H](O)[C@H]1NC(C)=O [4b],quality as substrate for NAGase,[2],excellent substrate
same,Km,[2]; substrate for NAGase,980 µM
same,solubility,[1]; water,≤ 10000 µM
"COc1cc(C=C2SC(=S)N(CC(=O)O)C2=O)ccc1O[C@@H]1O[C@H](CO)[C@H](O)[C@H](O)[C@H]1O [4c, Ammonium 5-[4-(β-D-galactopyranosyloxy)-3-methoxyphenyl-methylene]-2-thioxothiazolidin-4-one-3-ethanoate]",quality as substrate for E. Coli β-galactosidase,E. Coli β-galactosidase,very good substrate
same,solubility in water,[1]; water,easily soluble in water
